In ChEMBL document CHEMBL4680246, “Design, synthesis and biological evaluation of novel O-carbamoyl ferulamide derivatives as multi-target-directed ligands for the treatment of Alzheimer's disease” (Eur J Med Chem, 2020):
Activity calls are given as the source filed them. The calls are words filed in the database; no cut-off is given here.

How the values were obtained:
[1] = Effect on APP protein level in mouse HT22 cells transfected with pEGFP-N1-APP plasmid assessed as fluorescence intensity at 10 uM by fluorescence microscopy (reference value: 33.2); type: functional, HT-22
[2] = Toxicity in Zebrafish assessed as mortality at 12.5 ug/ml relative to control; design: species or system Danio rerio; conditions: in vivo, at 12.5 µg/mL
[3] = Acute toxicity in Kunming mouse assessed as lethargy at 250 to 1000 mg/kg; type: organism-based; conditions: in vivo, dose 250-1000 mg/kg
Cholinesterase [4] = molecular target: Cholinesterase (Equus caballus, UniProt P81908); experiment: Inhibition of equine serum BuChE using BTC as substrate after 15 mins by Ellman's method
[5] = Acute toxicity in Kunming mouse assessed as piloerection at 250 to 1000 mg/kg measured after 4 hrs; type: organism-based; conditions: in vivo, dose 250-1000 mg/kg
Danio rerio [6] = species on record: Danio rerio; experiment: Antialzheimer activity in AlCl3-induced Zebrafish model of Alzheimer's disease assessed as motility distance at 0.33 ug/ml (reference value: 5346 mm); type: functional; conditions: dose 0.33 µg/ml
SH-SY5Y [7] = experiment: Neuroprotective activity against amyloid beta (1 to 42)-induced cytotoxicity in human SH-SY5Y cells assessed as cell viability at 1 uM by MTT assay (reference value: 50.3%); type: functional; conditions: read-out: Activity
Danio rerio [8] = species on record: Danio rerio; experiment: Antialzheimer activity in AlCl3-induced Zebrafish model of Alzheimer's disease assessed as increase in motility speed at […] relative to control; type: functional; conditions: dose 0.11 µg/ml
[9] = Toxicity in Zebrafish assessed as small or misshapen eyes at 6.25 ug/ml relative to control; design: species or system Danio rerio; conditions: in vivo, at 6.25 µg/mL
Mus musculus [10] = experiment: Improvement in brain cholinergic activity in scopolamine-induced mouse model of amnesia assessed as reduction in AChE vitality at 5 to 10 mg/kg; type: functional, organism-based; conditions: dose 5-10 mg/kg
[11] = Acute toxicity in Kunming mouse assessed as hypokinesia at 250 to 1000 mg/kg; type: organism-based; conditions: in vivo, dose 250-1000 mg/kg
[12] = Effect on tau protein level in mouse HT22 cells transfected with pRK5-GFP-Tau plasmid assessed as fluorescence intensity at 2.5 uM by fluorescence microscopy (Rvb <= 40.9); type: functional, HT-22
HT-22 [13] = experiment: Down regulation of tau protein expression in mouse HT22 cells transfected with pRK5-GFP-Tau plasmid at 2.5 to 20 uM by Western blot analysis; type: functional, cell-based; conditions: dose 2.5-20 µM
Mus musculus [14] = experiment: Improvement in brain cholinergic activity in scopolamine-induced mouse model of amnesia assessed as change in ChAT vitality at 20 mg/kg (reference value: 28.8 U/g); type: functional
[15] = Acute toxicity in Kunming mouse assessed as damage in spleen at 50 to 1000 mg/kg measured after 7 days; type: organism-based; conditions: in vivo, 168 h, dose 50-1000 mg/kg, time 7 day
[16] = Toxicity in AlCl3-induced Zebrafish model of Alzheimer's disease assessed as mortality at 1 ug/ml relative to control; design: species or system Danio rerio; conditions: in vivo, at 1 µg/mL
[17] = Permeability of compound by PAMPA-BBB assay; type: ADME; conditions: read-out: permeability
Cholinesterase [18] = molecular target: Cholinesterase (Homo sapiens, UniProt P06276); experiment: Inhibition of human serum BuChE assessed as residual activity at IC50 using acetylcholine iodide as substrate measured by Ellman's method relative to control
SH-SY5Y [19] = experiment: Neuroprotective activity against amyloid beta (1 to 42)-induced cytotoxicity in human SH-SY5Y cells assessed as cell viability at 10 uM by MTT assay (reference value: 50.3%); type: functional; conditions: read-out: Activity
Danio rerio [20] = species on record: Danio rerio; experiment: Antialzheimer activity in AlCl3-induced Zebrafish model of Alzheimer's disease assessed as motility distance at 1 ug/ml (reference value: 5346 mm); type: functional; conditions: dose 1 µg/ml
Danio rerio [21] = species on record: Danio rerio; experiment: Antialzheimer activity in AlCl3-induced Zebrafish model of Alzheimer's disease assessed as increase in motility distance at 1 ug/ml relative to control; type: functional; conditions: dose 1 µg/ml
[22] = Effect on tau protein level in mouse HT22 cells transfected with pRK5-GFP-Tau plasmid assessed as fluorescence intensity at 20 uM by fluorescence microscopy (Rvb <= 40.9); type: functional, HT-22
[23] = Effect on tau protein level in mouse HT22 cells transfected with pRK5-GFP-Tau P301L plasmid assessed as fluorescence intensity at 5 uM by fluorescence microscopy (reference value: 33.6); type: functional, HT-22
Danio rerio [24] = species on record: Danio rerio; experiment: Antialzheimer activity in AlCl3-induced Zebrafish model of Alzheimer's disease assessed as increase in motility distance at […] relative to control; type: functional; conditions: dose 0.11 µg/ml
[25] = Toxicity in AlCl3-induced Zebrafish model of Alzheimer's disease assessed as mortality at 25 ug/ml relative to control; design: species or system Danio rerio; conditions: in vivo, at 25 µg/mL
[26] = Acute toxicity in Kunming mouse assessed as dyspnea at 250 to 1000 mg/kg; type: organism-based; conditions: in vivo, dose 250-1000 mg/kg
HT-22 [27] = experiment: Effect on APP protein level in mouse HT22 cells transfected with pEGFP-N1-APP plasmid assessed as reduction in fluorescence intensity by fluorescence microscopy; type: functional, cell-based
[28] = Effect on tau protein level in mouse HT22 cells transfected with pRK5-GFP-Tau P301L plasmid assessed as fluorescence intensity at 2.5 uM by fluorescence microscopy (reference value: 33.6); type: functional, HT-22
[29] = Toxicity in Zebrafish assessed as degenerating muscle within the somites at 6.25 ug/ml relative to control; design: species or system Danio rerio; conditions: in vivo, at 6.25 µg/mL
[30] = Acute toxicity in Kunming mouse assessed as mortality at 50 to 1000 mg/kg; type: organism-based; conditions: in vivo, dose 50-1000 mg/kg
Danio rerio [31] = species on record: Danio rerio; experiment: Antialzheimer activity in AlCl3-induced Zebrafish model of Alzheimer's disease assessed as change in motility speed at […] (reference value: 1.08 mm/s); type: functional; conditions: dose 0.11 µg/ml
[32] = Selectivity index, ratio of IC50 for Electrophorus electricus AChE to IC50 for equine serum BuChE
[33] = Drug metabolism in human liver microsomes by HPLC analysis; type: ADME, Microsome
[34] = Toxicity in Zebrafish assessed as mortality at 100 ug/ml relative to control; design: species or system Danio rerio; conditions: in vivo, at 100 µg/mL
Danio rerio [35] = species on record: Danio rerio; experiment: Antialzheimer activity in AlCl3-induced Zebrafish model of Alzheimer's disease assessed as motility distance at […] (reference value: 5346 mm); type: functional; conditions: dose 0.11 µg/ml
Homo sapiens = species on record: Homo sapiens; experiment: Selectivity index, ratio of IC50 for recombinant human MAO-A to IC50 for recombinant human MAO-B
Mus musculus [36] = experiment: Improvement in cognitive impairment in scopolamine-induced mouse model of amnesia assessed as increase in spontaneous alteration at 5 to 10 mg/kg by Y-maze test; type: functional, organism-based; conditions: dose 5-10 mg/kg
[37] = Toxicity in Zebrafish assessed as small or misshapen jaw at 6.25 ug/ml relative to control; design: species or system Danio rerio; conditions: in vivo, at 6.25 µg/mL
[38] = Effect on APP protein level in mouse HT22 cells transfected with pEGFP-N1-APP plasmid assessed as fluorescence intensity at 2.5 uM by fluorescence microscopy (reference value: 33.2); type: functional, HT-22
[39] = Acute toxicity in Kunming mouse assessed as damage in kidney at 50 to 1000 mg/kg measured after 7 days; type: organism-based; conditions: in vivo, 168 h, dose 50-1000 mg/kg, time 7 day

Chain of Cholinesterase (Equus caballus, UniProt P81908) (P81908 whole entry): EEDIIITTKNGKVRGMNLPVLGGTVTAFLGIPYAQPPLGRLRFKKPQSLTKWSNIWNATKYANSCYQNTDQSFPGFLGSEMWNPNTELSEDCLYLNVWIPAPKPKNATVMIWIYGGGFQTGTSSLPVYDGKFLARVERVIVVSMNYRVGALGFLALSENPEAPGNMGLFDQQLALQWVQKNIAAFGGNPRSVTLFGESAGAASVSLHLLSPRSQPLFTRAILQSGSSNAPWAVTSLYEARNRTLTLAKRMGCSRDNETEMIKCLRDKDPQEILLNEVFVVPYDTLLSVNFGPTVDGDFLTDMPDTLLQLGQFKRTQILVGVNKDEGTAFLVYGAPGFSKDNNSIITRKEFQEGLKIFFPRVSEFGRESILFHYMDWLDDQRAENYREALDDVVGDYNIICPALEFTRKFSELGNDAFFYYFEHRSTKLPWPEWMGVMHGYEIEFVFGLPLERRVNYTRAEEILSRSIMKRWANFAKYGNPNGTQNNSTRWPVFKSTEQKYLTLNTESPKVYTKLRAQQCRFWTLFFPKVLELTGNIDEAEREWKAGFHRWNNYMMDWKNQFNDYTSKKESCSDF
Chain of Cholinesterase (Homo sapiens, UniProt P06276) (P06276 whole entry): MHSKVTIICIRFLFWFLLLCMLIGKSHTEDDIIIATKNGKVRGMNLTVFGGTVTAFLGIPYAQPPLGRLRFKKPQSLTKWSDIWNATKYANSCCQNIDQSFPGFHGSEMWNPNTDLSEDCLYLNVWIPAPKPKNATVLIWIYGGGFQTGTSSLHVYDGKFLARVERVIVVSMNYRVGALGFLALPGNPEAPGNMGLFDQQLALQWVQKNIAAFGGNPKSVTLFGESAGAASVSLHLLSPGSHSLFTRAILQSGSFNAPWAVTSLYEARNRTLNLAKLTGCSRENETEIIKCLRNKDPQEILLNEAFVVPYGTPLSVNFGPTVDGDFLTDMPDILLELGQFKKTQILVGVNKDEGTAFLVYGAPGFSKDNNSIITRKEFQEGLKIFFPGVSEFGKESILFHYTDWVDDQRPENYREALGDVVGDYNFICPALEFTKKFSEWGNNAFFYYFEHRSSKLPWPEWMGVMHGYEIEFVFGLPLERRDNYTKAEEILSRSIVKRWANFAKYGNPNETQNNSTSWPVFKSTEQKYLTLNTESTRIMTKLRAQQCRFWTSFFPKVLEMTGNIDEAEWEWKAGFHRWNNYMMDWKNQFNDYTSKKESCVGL

CCN(C)C(=O)Oc1ccc(/C=C/C(=O)N2CCc3ccccc3C2)cc1OC
Flu intensity [1]: 13.3 | mortality at 12.5 ug/ml [2]: 100% | Activity [3]: Toxic | IC50 (Cholinesterase [4]): 0.92 µM | Activity [5]: Non-Toxic | Activity (Danio rerio [6]): 6763 mm | viability at 1 µM (SH-SY5Y [7]): 68.1% | Efficacy (Danio rerio [8]): 57.3% | Activity [9]: 26.7% | Activity (Mus musculus [10]): Active | Activity [11]: Toxic | Flu intensity [12]: 32.6 | Activity (HT-22 [13]): Active | Activity (Mus musculus [14]): 54.1 U/g | Activity [15]: Non-Toxic | mortality at 1 ug/ml [16]: 0% | Papp [17]: 214 nm/s | Activity (Cholinesterase [18]): 53.2% | viability at 10 µM (SH-SY5Y [19]): 83.8% | Activity (Danio rerio [20]): 7024 mm | Efficacy (Danio rerio [21]): 85.9% | Flu intensity [22]: 29.2 | Flu intensity [23]: 23.9 | Efficacy (Danio rerio [24]): 54.9% | mortality at 25 ug/ml [25]: 100% | Activity [26]: Toxic | Activity (HT-22 [27]): Dose-dependent effect | Flu intensity [28]: 30.3 | Activity [29]: 36.7% | Activity [30]: Non-Toxic | Activity (Danio rerio [31]): 1.79 millimeter/sec | Ratio IC50 [32]: 12.3 | Drug metabolism [33]: Metabolite_Detected | mortality at 100 ug/ml [34]: 100% | Activity (Danio rerio [35]): <=6418 mm | Ratio IC50 (Homo sapiens): 3 | Activity (Mus musculus [36]): Active | Activity [37]: 33.3% | Flu intensity [38]: 29.8 | Activity [39]: Non-Toxic
